Assay results published in ChEMBL document CHEMBL1145481, “Molecular epidemiology of telithromycin-resistant pneumococci in Finland” (2007).

What was measured:
Streptococcus pneumoniae [1] = assay: Antimicrobial activity against telithromycin-resistant Streptococcus pneumoniae 115 isolate with erm(B) resistance gene from patient ear by disk diffusion test; assay type: functional
Streptococcus pneumoniae [2] = assay: Antimicrobial activity against telithromycin-resistant Streptococcus pneumoniae 897 isolate with erm(B) resistance gene from patient bronchoalveolar lavage by disk diffusion test; assay type: functional, Lung
Streptococcus pneumoniae [3] = assay: Antimicrobial activity against telithromycin-resistant Streptococcus pneumoniae 237 isolate with erm(B) resistance gene from patient ear by disk diffusion test; assay type: functional
Streptococcus pneumoniae [4] = assay: Antimicrobial activity against telithromycin-resistant Streptococcus pneumoniae 415 isolate with erm(B) resistance gene from patient blood by disk diffusion test; assay type: functional
Streptococcus pneumoniae [5] = assay: Antimicrobial activity against telithromycin-resistant Streptococcus pneumoniae 426 isolate with erm(B) resistance gene from patient sinuitis by disk diffusion test; assay type: functional
Streptococcus pneumoniae [6] = assay: Antimicrobial activity against telithromycin-resistant Streptococcus pneumoniae 427 isolate with erm(B) resistance gene from patient sinuitis by disk diffusion test; assay type: functional
Streptococcus pneumoniae [7] = assay: Antimicrobial activity against telithromycin-resistant Streptococcus pneumoniae 443 isolate with erm(B) resistance gene from patient ear by disk diffusion test; assay type: functional
Streptococcus pneumoniae [8] = assay: Antimicrobial activity against telithromycin-resistant Streptococcus pneumoniae 460 isolate with erm(B) resistance gene from patient ear by disk diffusion test; assay type: functional
Streptococcus pneumoniae [9] = assay: Antimicrobial activity against telithromycin-resistant Streptococcus pneumoniae 547 isolate with erm(B) resistance gene from patient sinuitis by disk diffusion test; assay type: functional
Streptococcus pneumoniae [10] = assay: Antimicrobial activity against telithromycin-resistant Streptococcus pneumoniae 552 isolate with erm(B) resistance gene from patient sinuitis by disk diffusion test; assay type: functional
Streptococcus pneumoniae [11] = assay: Antimicrobial activity against telithromycin-resistant Streptococcus pneumoniae 683 isolate with erm(B) resistance gene from patient sputum by disk diffusion test; assay type: functional
Streptococcus pneumoniae [12] = assay: Antimicrobial activity against telithromycin-resistant Streptococcus pneumoniae 811 isolate with erm(B) resistance gene from patient blood by disk diffusion test; assay type: functional
Streptococcus pneumoniae [13] = assay: Antimicrobial activity against telithromycin-resistant Streptococcus pneumoniae 833 isolate with erm(B) resistance gene from patient sinuitis by disk diffusion test; assay type: functional
Streptococcus pneumoniae [14] = assay: Antimicrobial activity against telithromycin-resistant Streptococcus pneumoniae 859 isolate with erm(B) resistance gene from patient bronchoalveolar lavage by disk diffusion test; assay type: functional, Lung
Streptococcus pneumoniae [15] = assay: Antimicrobial activity against telithromycin-resistant Streptococcus pneumoniae 918 isolate with erm(B) resistance gene from patient eye by disk diffusion test; assay type: functional
Streptococcus pneumoniae [16] = assay: Antimicrobial activity against telithromycin-resistant Streptococcus pneumoniae 981 isolate with erm(B) resistance gene from patient blood by disk diffusion test; assay type: functional
Streptococcus pneumoniae [17] = assay: Antimicrobial activity against telithromycin-resistant Streptococcus pneumoniae 1016 isolate with erm(B) resistance gene from patient blood by disk diffusion test; assay type: functional
Streptococcus pneumoniae [18] = assay: Antimicrobial activity against telithromycin-resistant Streptococcus pneumoniae 1017 isolate with erm(B) resistance gene from patient ear by disk diffusion test; assay type: functional
Streptococcus pneumoniae [19] = assay: Antimicrobial activity against telithromycin-resistant Streptococcus pneumoniae 1022 isolate with erm(B) resistance gene from patient ear by disk diffusion test; assay type: functional
Streptococcus pneumoniae [20] = assay: Antimicrobial activity against telithromycin-resistant Streptococcus pneumoniae 1041 isolate with erm(B) resistance gene from patient blood by disk diffusion test; assay type: functional
Streptococcus pneumoniae [21] = assay: Antimicrobial activity against telithromycin-resistant Streptococcus pneumoniae 1051 isolate with erm(B) resistance gene from patient ear by disk diffusion test; assay type: functional
Streptococcus pneumoniae [22] = assay: Antimicrobial activity against telithromycin-resistant Streptococcus pneumoniae 838 isolate with erm(B) and mef(E) resistance gene from patient ear by disk diffusion test; assay type: functional
Streptococcus pneumoniae [23] = assay: Antimicrobial activity against telithromycin-resistant Streptococcus pneumoniae 759 isolate with erm(B) resistance gene from patient ear by disk diffusion test; assay type: functional
Streptococcus pneumoniae [24] = assay: Antimicrobial activity against telithromycin-resistant Streptococcus pneumoniae 837 isolate with mutation in erm(B), mef(E), L4 Ser20Asn mutant gene from patient sputum by disk diffusion test; assay type: functional
Streptococcus pneumoniae [25] = assay: Antimicrobial activity against telithromycin-resistant Streptococcus pneumoniae 326 isolate with erm(B) resistance gene from patient blood by disk diffusion test; assay type: functional
Streptococcus pneumoniae [26] = assay: Antimicrobial activity against telithromycin-resistant Streptococcus pneumoniae 376 isolate with erm(B) resistance gene from patient ear by disk diffusion test; assay type: functional

SMILES	Activity (Streptococcus pneumoniae [1]) [µg/mL]	Activity (Streptococcus pneumoniae [2]) [µg/mL]	Activity (Streptococcus pneumoniae [3]) [µg/mL]	Activity (Streptococcus pneumoniae [4]) [µg/mL]	Activity (Streptococcus pneumoniae [5]) [µg/mL]	Activity (Streptococcus pneumoniae [6]) [µg/mL]	Activity (Streptococcus pneumoniae [7]) [µg/mL]	Activity (Streptococcus pneumoniae [8]) [µg/mL]	Activity (Streptococcus pneumoniae [9]) [µg/mL]	Activity (Streptococcus pneumoniae [10]) [µg/mL]	Activity (Streptococcus pneumoniae [11]) [µg/mL]	Activity (Streptococcus pneumoniae [12]) [µg/mL]	Activity (Streptococcus pneumoniae [13]) [µg/mL]	Activity (Streptococcus pneumoniae [14]) [µg/mL]	Activity (Streptococcus pneumoniae [15]) [µg/mL]	Activity (Streptococcus pneumoniae [16]) [µg/mL]	Activity (Streptococcus pneumoniae [17]) [µg/mL]	Activity (Streptococcus pneumoniae [18]) [µg/mL]	Activity (Streptococcus pneumoniae [19]) [µg/mL]	Activity (Streptococcus pneumoniae [20]) [µg/mL]	further results
CC[C@H]1OC(=O)[C@H](C)[C@@H](O[C@H]2C[C@@](C)(OC)[C@@H](O)[C@H](C)O2)[C@H](C)[C@@H](O[C@@H]2O[C@H](C)C[C@H](N(C)C)[C@H]2O)[C@](C)(O)C[C@@H](C)C(=O)[C@H](C)[C@@H](O)[C@]1(C)O [ERYTHROMYCIN]	129	129	129	129	129	129	129	129	129	129	129	129	129	129	129	129	129	129	129	129	Activity (Streptococcus pneumoniae [21]): 129 µg/mL; Activity (Streptococcus pneumoniae [22]): 129 µg/mL; Activity (Streptococcus pneumoniae [23]): 129 µg/mL; Activity (Streptococcus pneumoniae [24]): 129 µg/mL; Activity (Streptococcus pneumoniae [25]): 129 µg/mL; Activity (Streptococcus pneumoniae [26]): 129 µg/mL
CN(C)[C@@H]1C(O)=C(C(N)=O)C(=O)[C@@]2(O)C(O)=C3C(=O)c4c(O)cccc4[C@@](C)(O)[C@H]3C[C@@H]12 [TETRACYCLINE]	64	64	32	32	32	32	32	32	32	32	32	16	32	32	32	32	32	32	32	32	Activity (Streptococcus pneumoniae [21]): 32 µg/mL; Activity (Streptococcus pneumoniae [22]): 32 µg/mL; Activity (Streptococcus pneumoniae [23]): 32 µg/mL; Activity (Streptococcus pneumoniae [24]): 64 µg/mL; Activity (Streptococcus pneumoniae [25]): 32 µg/mL; Activity (Streptococcus pneumoniae [26]): 0.5 µg/mL
